Assay [1] has as its system rat EAE model. The assay can be described thus: Rat experimental autoimmune encephalomyelitis (EAE) model, preventive treatment. Format: in vivo. How it is done:
A further study was carried out to study the impact of Lp-PLA2 inhibitors on modulating M1/M2 imbalance. In this study, rats were induced to develop experimental autoimmune encephalomyelitis (EAE) by immunization with myelin basic protein (MBP) antigen and treated with a known Lp-PLA2 inhibitor: 5-((9-Methoxy-4-oxo-6,7-dihydro-4H-pyrimido[6,1-a]isoquinolin-2-yl)oxy)-2-(3-(trifluoromethyl)phenoxy)benzonitrile (See PCT application no. PCT/CN2011/001597). In this preventive treatment model, the compound was administered at day 0 (day of immunization) and continued to administer until day 22. The study lasted for 25 days. Rats were subsequently monitored for symptoms of EAE. Rats were immunized with MBP to develop EAE and symptoms were monitored daily. Plasma Lp-PLA2 activity, OxLDL, and LysoPC concentration were determined at different time points through the course of EAE.

Assay [2] has as its system proinflammatory (M1) and anti-inflammatory (M2) markers in macrophages. Kind of assay: Ex vivo analysis of M1 and M2 markers in macrophages of EAE rats by realtime PCR. Further details: species or system rat. To be noted: splenic and CNS infiltrating macrophages of EAE rats. As for the experimental part:
Ex vivo analysis of proinflammatory (M1) and anti-inflammatory (M2) markers in control and compound treated EAE rats. Splenic macrophages were harvested at day 13 post MBP-immunization and assayed for expression of a variety of markers by realtime PCR. CNS infiltrating cells were harvested and macrophages were analyzed for expression of M1 and M2 markers by realtime PCR.

Assay [3] addresses T1, recombinant human Lp-PLA2 (Homo sapiens, UniProt Q13093).
T1 sequence (Q13093 22-441): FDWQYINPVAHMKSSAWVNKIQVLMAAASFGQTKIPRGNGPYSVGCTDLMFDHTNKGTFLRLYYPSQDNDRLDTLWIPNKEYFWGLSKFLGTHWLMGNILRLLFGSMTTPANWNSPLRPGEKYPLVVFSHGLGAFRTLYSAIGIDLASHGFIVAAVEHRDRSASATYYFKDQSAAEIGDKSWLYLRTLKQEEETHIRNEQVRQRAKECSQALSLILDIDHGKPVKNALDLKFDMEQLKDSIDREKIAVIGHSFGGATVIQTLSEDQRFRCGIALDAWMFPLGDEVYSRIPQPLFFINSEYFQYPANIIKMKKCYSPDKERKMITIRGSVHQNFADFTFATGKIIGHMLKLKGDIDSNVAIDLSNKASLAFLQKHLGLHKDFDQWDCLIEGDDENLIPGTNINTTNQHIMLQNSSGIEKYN
Kind of assay: Recombinant human Lp-PLA2 assay (rhLp-PLA2, PED6 assay). Format: biochemical. Particulars: lower bounds; read-out: pIC50 values in the PED6 assay (converted). The essentials: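 Compounds were preincubated 30 min with 4 nM […] rhLp-PLA2 in 50 mM HEPES pH 7.4, 150 mM NaCl, 1 mM CHAPS, then PED6 substrate […] was added for 20 min at room temperature in the dark. Fluorescence was read at ex 480/em 540, and pIC50 was fitted from 1:3 serial dilutions.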

In assay [4] the target is T2, Lp-PLA2 in human plasma (Homo sapiens, UniProt Q13093).
T2 construct: from tissue; host or cells: pooled human plasma
T2 sequence (Q13093 22-441): T1 sequence (Q13093 22-441)
The assay can be described thus: Lp-PLA2 human plasma assay (Thio-PAF assay). Particulars: pooled human plasma; lower bounds; read-out: pIC50 values in the thio-PAF assay (converted). It is filed as biochemical. The gist of the method: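 Pooled human plasma preincubated 30 min with compounds, then given 2-thio-PAF substrate with CPM and NEM in 50 mM HEPES pH 7.4, 150 mM NaCl, 1 mM CHAPS. Reaction quenched after 2 min with TFA and read by fluorescence (ex 380/em 485) after 40 min at room temperature; pIC50 from curve fit.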

A value given as a limit tells only on which side of the number the result lay.

Consider `COc1ccc2c(c1)CCn1c-2cc(Oc2ccc(Oc3cccc(C(F)(F)F)c3)c(C#N)c2)nc1=O` [5-((9-Methoxy-4-oxo-6,7-dihydro-4H-pyrimido[6,1-a]isoquinolin-2-yl)oxy)-2-(3-(trifluoromethyl)phenoxy)benzonitrile], for which, in assay [1] (rat EAE plasma), the “Lp-PLA2 activity in rat EAE plasma” value is on record as “decreased” and the “LysoPC levels in rat EAE plasma” value is listed as “decreased”. Also, the clinical disease entry in assay [1] (rat EAE, MBP immunization, administered day 0 to day 22) is “reduction in clinical disease”. Further, in assay [2], the M1 markers result is given as “decrease” and the M2 markers result was “increase”.

As to `CC1(C)Cn2c(cc(OCc3cc(F)c(Oc4ccc(F)nc4)c(F)c3)nc2=O)N1` [Example E134, 7-((3,5-difluoro-4-((6-fluoropyridin-3-yl)oxy)benzyl)oxy)-2,2-dimethyl-2,3-dihydroimidazo[1,2-c]pyrimidin-5(1H)-one], the IC50 is at most 1 nM in assay [3] and at most 100 nM in assay [4].

As for `[2H]C1([2H])n2c(cc(OCc3cccc(F)c3F)nc2=O)N(C)C1(C)C` [Example E136, 7-((2,3-difluorobenzyl)oxy)-1,2,2-trimethyl-3,3-dideutero-2,3-dihydroimidazo[1,2-c]pyrimidin-5(1H)-one], the IC50 was at most 10 nM in assay [3] and at most 100 nM in assay [4].

Regarding `[2H]C1([2H])n2c(cc(OCc3cc(F)cc(F)c3)nc2=O)N(C)C1(C)C` [Example E137, 7-((3,5-difluorobenzyl)oxy)-1,2,2-trimethyl-3,3-dideutero-2,3-dihydroimidazo[1,2-c]pyrimidin-5(1H)-one], the IC50 in assay [3] is at most 10 nM; in assay [4], at most 100 nM.

These data come from patent US9051325B2, “Bicyclic [5,6] imidazo pyrimodone compounds for use in the treatment of diseases or conditions mediated by Lp-PLA2” (GlaxoSmithKline Intellectual Property Development Limited, priority 2013, dated 2015).
